Measurements as given in patent US20100022491A1, “4-HYDROXY-2-OXO-2,3-DIHYDRO-1,3-BENZOTHIAZOL-7YL COMPOUNDS FOR MODULATION OF B2-ADRENORECEPTOR ACTIVITY” (ASTRAZENECA AB, priority 2006, published 2010).
Counter-ions that a name gives are not always drawn.

Assays:
[1] = target: T1, Adrenergic β2 (Homo sapiens, UniProt P07550); experiment: Adrenergic β2 mediated cAMP production in H292 cells; assay type: cell-based; details: for EC50: read-out: β2 pEC50 (converted); for β2 Int Act: Intrinsic Activity as a fraction relative to the maximum activity determined for formoterol
T1 construct: Adherent H292 cells were removed from tissue culture flasks; endogenous in cells; host or cells: H292 cells
T1 sequence (P07550 whole entry): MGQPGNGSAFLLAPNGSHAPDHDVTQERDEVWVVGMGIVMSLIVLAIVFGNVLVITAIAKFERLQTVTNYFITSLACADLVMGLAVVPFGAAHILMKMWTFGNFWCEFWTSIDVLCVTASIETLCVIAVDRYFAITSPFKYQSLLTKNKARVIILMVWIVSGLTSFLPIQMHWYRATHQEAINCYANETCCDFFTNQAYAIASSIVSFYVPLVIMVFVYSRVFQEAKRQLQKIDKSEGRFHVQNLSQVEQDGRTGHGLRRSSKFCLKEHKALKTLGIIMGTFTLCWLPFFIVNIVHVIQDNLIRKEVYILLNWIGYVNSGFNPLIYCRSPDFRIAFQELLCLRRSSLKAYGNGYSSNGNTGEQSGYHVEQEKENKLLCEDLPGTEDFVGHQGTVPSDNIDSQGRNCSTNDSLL
How it was run: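 cAMP accumulation in adherent H292 cells, measured by AlphaScreen and calibrated with cAMP standards. Compounds incubated 60 min at room temperature after 10 min rolipram (final 300 μM; vehicle 1.6% DMSO). pEC50 and intrinsic activity, as a fraction of formoterol's maximum, from four-parameter logistic fit.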

[2] = target: T2, recombinant human adrenergic beta 1 receptors (Homo sapiens, UniProt P08588); experiment: Adrenergic β1 selectivity binding assay ([125I]-Iodocyanopindolol); details: inhibition of [125I]-Iodocyanopindolol (0.036 nM) binding; for IC50: read-out: β1 bind p IC50 (converted)
T2 construct: purchased Euroscreen
T2 sequence (P08588 whole entry): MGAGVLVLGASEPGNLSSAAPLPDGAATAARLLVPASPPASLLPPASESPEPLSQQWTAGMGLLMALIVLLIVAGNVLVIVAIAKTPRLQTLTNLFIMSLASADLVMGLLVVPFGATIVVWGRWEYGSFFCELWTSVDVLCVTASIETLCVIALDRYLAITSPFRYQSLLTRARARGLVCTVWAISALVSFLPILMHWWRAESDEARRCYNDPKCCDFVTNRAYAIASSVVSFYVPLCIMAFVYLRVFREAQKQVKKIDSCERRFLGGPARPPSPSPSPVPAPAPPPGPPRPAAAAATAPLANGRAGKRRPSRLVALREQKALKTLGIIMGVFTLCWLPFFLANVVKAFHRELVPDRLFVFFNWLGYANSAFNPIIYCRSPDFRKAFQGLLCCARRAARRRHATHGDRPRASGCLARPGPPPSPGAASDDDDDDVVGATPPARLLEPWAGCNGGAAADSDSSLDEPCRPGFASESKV
Experimental: Membranes containing recombinant human adrenergic beta 1 receptors were obtained from Euroscreen. These were diluted in Assay Buffer (50 mM HEPES, 1 mM EDTA, 120 mM NaCl, 0.1% gelatin, pH 7.4) to provide a final concentration of membranes that gave a clear window between maximum and minimum specific binding.
Assays were performed in U-bottomed 96-well polypropylene plates. 10 μL [^125I]-Iodocyanopindolol (0.036 nM final concentration) and 10 μL of test compound (10× final concentration) were added to each test well. For each assay plate 8 replicates were obtained for [^125I]-Iodocyanopindolol binding in the presence of 10 μL vehicle (10% (v/v) DMSO in Assay Buffer; defining maximum binding) or 10 μL Propranolol (10 μM final concentration; defining non-specific binding (NSB)). Membranes were then added to achieve a final volume of 100 μL. The plates were incubated for 2 hours at room temperature and then filtered onto PEI coated GF/B filter plates, pre-soaked for 1 hour in Assay Buffer, using a 96-well plate Tomtec cell harvester. Five washes with 250 μL wash buffer (50 mM HEPES, 1 mM EDTA, 120 mM NaCl, pH 7.4) were performed at 4° C. to remove unbound radioactivity. The plates were dried then sealed from underneath using Packard plate sealers and MicroScint-O (50 μL) was added to each well. The plates were sealed (TopSeal A) and filter-bound radioactivity was measured with a scintillation counter (TopCount, Packard BioScience) using a 3-minute counting protocol.
Total specific binding (B0) was determined by subtracting the mean NSB from the mean maximum binding. NSB values were also subtracted from values from all other wells. […] Data was fitted to a four parameter logistic equation to determine the compound potency, which was expressed as pIC50 (negative log molar concentration inducing 50% inhibition of [^125I]-Iodocyanopindolol binding).

[3] = H292 cells, cAMP by AlphaScreen, 60 minutes at room temperature, rolipram 300 μM

| Structure (SMILES) | EC50 [1, 3] | β2 Int Act [1] | IC50 [2] | β2 pEC50 [1, 3] | β1 bind p IC50 [2] |
| --- | --- | --- | --- | --- | --- |
| O=C(NCc1ccccc1)c1ccc(CCNCCC(=O)N(CCNCCc2ccc(O)c3[nH]c(=O)sc23)C2CCCCCC2)cc1 [Example 100, N-Benzyl-4-[2-({3-[cycloheptyl(2-{[2-(4-hydroxy-2-oxo-2,3-dihydro-1,3-benzothiazol-7-yl)ethyl]amino}ethyl)amino]-3-oxopropyl}amino)ethyl]benzamide bis-trifluoroacetic acid salt] | 6.31 nM | 0.81 | 1260 nM |  |  |
| CC(C)(C)CN(CCNCCc1ccc(O)c2[nH]c(=O)sc12)C(=O)CCNCCc1cccc(F)c1 [Example 44, N^1-(2,2-Dimethylpropyl)-N^3-[2-(3-fluorophenyl)ethyl]-N^1-(2-{[2-(4-hydroxy-2-oxo-2,3-dihydro-1,3-benzothiazol-7-yl)ethyl]amino}ethyl)-β-alaninamide bis-trifluoroacetic acid salt] | 6.31 nM | 0.73 | 5010 nM |  |  |
| O=C(CCNCCc1cccc(Cl)c1)N(CCNCCc1ccc(O)c2[nH]c(=O)sc12)C1CCOCC1 [Example 22, N^3-[2-(3-Chlorophenyl)ethyl]-N-(2-{[2-(4-hydroxy-2-oxo-2,3-dihydro-1,3-benzothiazol-7-yl)ethyl]amino}ethyl)-N-(tetrahydro-2H-pyran-4-yl)-β-alaninamide bis-trifluoroacetic acid salt] | 2.51 nM | 0.96 | 3980 nM |  |  |
| O=C(CCNCCc1cccc(F)c1F)N(CCNCCc1ccc(O)c2[nH]c(=O)sc12)C1CCCCCC1 [Example 56, N^1-Cycloheptyl-N^3-[2-(2,3-difluorophenyl)ethyl]-N^1-(2-{[2-(4-hydroxy-2-oxo-2,3-dihydro-1,3-benzothiazol-7-yl)ethyl]amino}ethyl)-β-alaninamide bis-trifluoroacetic acid salt] | 5.01 nM | 0.86 | 3160 nM |  |  |
| O=C(CCNCCc1ccccc1Cl)N(CCNCCc1ccc(O)c2[nH]c(=O)sc12)C1CCC(F)(F)CC1 [Example 46, N^3-[2-(2-Chlorophenyl)ethyl]-N^1-(4,4-difluorocyclohexyl)-N^1-(2-{[2-(4-hydroxy-2-oxo-2,3-dihydro-1,3-benzothiazol-7-yl)ethyl]amino}ethyl)-β-alaninamide bis-trifluoroacetic acid salt] | 3.16 nM | 0.78 | 1580 nM |  |  |
| O=C(CCNCCc1ccccc1)N(CCNCCc1ccc(O)c2[nH]c(=O)sc12)C1CCSCC1 [Example 62, N-(2-{[2-(4-Hydroxy-2-oxo-2,3-dihydro-1,3-benzothiazol-7-yl)ethyl]amino}ethyl)-N^3-(2-phenylethyl)-N^1-(tetrahydro-2H-thiopyran-4-yl)-β-alaninamide bis-trifluoroacetic acid salt] | 6.31 nM | 0.87 | 398 nM |  |  |
| O=C(CCNCCc1cccc(Cl)c1)N(CCNCCc1ccc(O)c2[nH]c(=O)sc12)C1CCCCC1 [Example 12, N^3-[2-(3-Chlorophenyl)ethyl]-N-cyclohexyl-N-(2-{[2-(4-hydroxy-2-oxo-2,3-dihydro-1,3-benzothiazol-7-yl)ethyl]amino}ethyl)-β-alaninamide bis-trifluoroacetic acid salt] | 2.51 nM | 0.87 | 3160 nM |  |  |
| O=C(CCNCCc1cccc(Cl)c1)N(CCNCCc1ccc(O)c2[nH]c(=O)sc12)C1CCC(F)(F)CC1 [Example 47, N^3-[2-(3-Chlorophenyl)ethyl]-N^1-(4,4-difluorocyclohexyl)-N^1-(2-{[2-(4-hydroxy-2-oxo-2,3-dihydro-1,3-benzothiazol-7-yl)ethyl]amino}ethyl)-β-alaninamide bis-trifluoroacetic acid salt] | 3.16 nM | 0.73 | 1260 nM |  |  |
| O=C(CCNCCc1ccc(F)cc1)N(CCNCCc1ccc(O)c2[nH]c(=O)sc12)CC12CC3CC(CC(C3)C1)C2 [Example 61, N^1-(1-Adamantylmethyl)-N^3-[2-(4-fluorophenyl)ethyl]-N^1-(2-{[2-(4-hydroxy-2-oxo-2,3-dihydro-1,3-benzothiazol-7-yl)ethyl]amino}ethyl)-β-alaninamide bis-trifluoroacetic acid salt] | 10 nM | 0.79 | 2510 nM |  |  |
| O=C(CCNCCc1c(F)cccc1F)N(CCNCCc1ccc(O)c2[nH]c(=O)sc12)C1CCCCCC1 [Example 84, N^1-Cycloheptyl-N^3-[2-(2,6-difluorophenyl)ethyl]-N^1-(2-{[2-(4-hydroxy-2-oxo-2,3-dihydro-1,3-benzothiazol-7-yl)ethyl]amino}ethyl)-β-alaninamide bis-trifluoroacetic acid salt] | 20 nM | 0.89 | 1000 nM |  |  |
| Cc1ccccc1CCNCCC(=O)N(CCNCCc1ccc(O)c2[nH]c(=O)sc12)C1CCOCC1 [Example 27, N-(2-{[2-(4-Hydroxy-2-oxo-2,3-dihydro-1,3-benzothiazol-7-yl)ethyl]amino}ethyl)-N^3-[2-(2-methylphenyl)ethyl]-N-(tetrahydro-2H-pyran-4-yl)-β-alaninamide bis-trifluoroacetic acid salt] | 10 nM | 0.95 | 5010 nM |  |  |
| O=C(CCNCCc1ccccc1)N(CCNCCc1ccc(O)c2[nH]c(=O)sc12)CC12CC3CC(CC(C3)C1)C2 [Example 59, N^1-(1-Adamantylmethyl)-N^1-(2-{[2-(4-hydroxy-2-oxo-2,3-dihydro-1,3-benzothiazol-7-yl)ethyl]amino}ethyl)-N^3-(2-phenylethyl)-β-alaninamide bis-trifluoroacetic acid salt] | 5.01 nM | 0.85 | 794 nM |  |  |
| CCCC[C@H](C)N(CCNCCc1ccc(O)c2[nH]c(=O)sc12)C(=O)CCNCCc1ccccc1 [Example 102, N-(2-{[2-(4-Hydroxy-2-oxo-2,3-dihydro-1,3-benzothiazol-7-yl)ethyl]amino}ethyl)-N-[(1S)-1-methylpentyl]-N^3-(2-phenylethyl)-β-alaninamide bis-trifluoroacetic acid salt] | 79.4 nM | 0.23 | 1260 nM |  |  |
| O=C(CCNCCc1ccc(Cl)c(Cl)c1)N(CCNCCc1ccc(O)c2[nH]c(=O)sc12)C1CCOCC1 [Example 94, N^3-[2-(3,4-Dichlorophenyl)ethyl]-N-(2-{[2-(4-hydroxy-2-oxo-2,3-dihydro-1,3-benzothiazol-7-yl)ethyl]amino}ethyl)-N-(tetrahydro-2H-pyran-4-yl)-β-alaninamide dihydrobromide salt] |  |  |  | 8.1 | 5.7 |
| O=C(CCNCCc1ccc(F)c(F)c1)N(CCNCCc1ccc(O)c2[nH]c(=O)sc12)C1CCCCCC1 [Example 53, N^1-Cycloheptyl-N^1-[2-(3,4-difluorophenyl)ethyl]-N^1-(2-{[2-(4-hydroxy-2-oxo-2,3-dihydro-1,3-benzothiazol-7-yl)ethyl]amino}ethyl)-β-alaninamide bis-trifluoroacetic acid salt] | 10 nM | 0.74 | 3980 nM |  |  |
| CC(C)(C)CN(CCNCCc1ccc(O)c2[nH]c(=O)sc12)C(=O)CCNC(C)(C)Cc1ccccc1 [Example 38, N^3-(1,1-Dimethyl-2-phenylethyl)-N-(2,2-dimethylpropyl)-N-(2-{[2-(4-hydroxy-2-oxo-2,3-dihydro-1,3-benzothiazol-7-yl)ethyl]amino}ethyl)-β-alaninamide bis-trifluoroacetic acid salt] | 63.1 nM | 0.42 | 5010 nM |  |  |
| O=C(CCNCCc1cccc(F)c1)N(CCNCCc1ccc(O)c2[nH]c(=O)sc12)C1CCCCC1 [Example 96, N-Cyclohexyl-N^3-[2-(3-fluorophenyl)ethyl]-N-(2-{[2-(4-hydroxy-2-oxo-2,3-dihydro-1,3-benzothiazol-7-yl)ethyl]amino}ethyl)-β-alaninamide dihydrobromide salt] | 2.51 nM | 0.85 | 6310 nM |  |  |
| CC(C)(C)CN(CCNCCc1ccc(O)c2[nH]c(=O)sc12)C(=O)CCNCCc1ccc(Cl)cc1 [Example 8, N^3-[2-(4-Chlorophenyl)ethyl]-N-(2,2-dimethylpropyl)-N-(2-{[2-(4-hydroxy-2-oxo-2,3-dihydro-1,3-benzothiazol-7-yl)ethyl]amino}ethyl)-β-alaninamide bis-trifluoroacetic acid salt] | 10 nM | 0.73 | 5010 nM |  |  |
